Measurements published in patent US4731109A, “Herbicidal 2-haloacetanilides” (Monsanto Company, priority 1982, dated 1988).
Read-outs that look alike come from different tables or passages of the source.

Key:
Format in all cases: in vivo
Quackgrass = assay: Greenhouse pre-emergence GR15/GR85 selectivity test; conditions: Table IV
From the text: (§1) A good grade of top soil is placed in aluminum pans and compacted to a depth of three-eighths to one-half inch from the top of the pan. On the top of the soil is placed a number of seeds or vegetative propagules of various plant species. The soil required to level fill the pans after seeding or adding vegetative propagules is weighed into a pan. The soil and a known amount of the active ingredient applied in a solvent or as a wettable powder suspension are thoroughly mixed, and used to cover the prepared pans. […] As an alternative procedure, the overhead irrigation may be omitted. Observations are made about 2-3 weeks after seeding and treatment.
(§2) A further guide to the effectiveness of a chemical as a selective herbicide is the "selectivity factor" ("SF") for a herbicide in given crops and weeds. The selectivity factor is a measure of the relative degree of crop safety and weed injury and is expressed in terms of the GR15 /GR85 ratio, i.e., the GR15 rate for the crop divided by the GR85 rate for the weed, both rates in kg/ha (lb/A). In the tables below, selectivity factors are shown in parenthesis following the GR85 rate for each weed; the symbol "NS" indicates "non-selective". Marginal or undetermined selectivity is indicated by a dash (--).
(§3) These weeds are commonly associated with such major crops as corn and soybeans. […] The test procedure was the same as described for Tables II and III but modified by the application of an initial overhead irrigation equivalent to 1/4" (0.64 cm) rainfall; subsequent watering was accomplished by subirrigation. "NS" means non-selective within the test limits.
(§4) Unless otherwise noted; greenhouse tests in Table VI and in other tables below involved herbicide treatments by soil incorporation and an initial overhead irrigation followed by subirrigation as described above.

Yellow Nutsedge = assay: as above; conditions: Table IV
From the text: as §1, §2, §3, §4

common purslane = assay: as above; conditions: Table XV
Outline: (§5)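 Pre-emergence soil-incorporation test: seeded pans were covered with topsoil mixed with active ingredient (in solvent or as wettable powder), overhead-irrigated (0.64 cm) or not, then subirrigated. Plants were scored about 2-3 weeks after treatment. GR15/GR85 rates are in kg/ha, and selectivity factor is crop GR15 divided by weed GR85.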

common ragweed = assay: as above; conditions: Table XV
Outline: as §5

prickly sida = assay: as above; conditions: Table XV
Outline: as §5

Barnyardgrass = assay: Resistance to leaching and resulting herbicidal efficacy; conditions: for inhibition at 140 g/ha / inhibition at 560 g/ha / inhibition at 2360 g/ha: Echinochloa crus-galli, read-out: Percent Inhibition
Protocol: Laboratory tests were conducted to determine the resistance of herbicides according to this invention to leaching into the soil and resulting herbicidal efficacy. […] The pots containing the treated soil were subjected to leaching by placing on a turntable which rotated under two nozzle tips of a water container calibrated to deliver one inch (2.5 cm) of water per hour simulating rainfall. Leaching rates were adjusted by varying the amount of time on the turntable. Water was delivered to the soil in the pots and allowed to percolate through the filter paper and drainage holes. The pots were then allowed to sit for three days at ambient room temperature. The treated soil in the pots was then removed, crumbled and placed as a surface layer on top of other pots containing the above soils seeded with barnyardgrass seeds. The pots were then placed on greenhouse benches, sub-irrigated and allowed to grow for 2-3 weeks. Visual ratings of percent growth inhibition compared to control (untreated) pots and fresh weights for barnyardgrass were recorded; the data from the control represents six replications and that for the test compounds three replications; test data are shown in Table XVIII.

[1] = Ray silt loam, 0.14 Kg/Ha, rain 0 cm
[2] = Ray silt loam, 0.14 Kg/Ha, rain 1.27 cm
[3] = Ray silt loam, 0.14 Kg/Ha, rain 5.08 cm
[4] = Ray silt loam, 0.56 Kg/Ha, rain 0 cm
[5] = Ray silt loam, 0.56 Kg/Ha, rain 1.27 cm
[6] = Ray silt loam, 0.56 Kg/Ha, rain 5.08 cm
[7] = Ray silt loam, 0.56 Kg/Ha, rain 10.16 cm
[8] = Ray silt loam, 2.36 Kg/Ha, rain 0 cm
[9] = Ray silt loam, 2.36 Kg/Ha, rain 1.27 cm
[10] = Ray silt loam, 2.36 Kg/Ha, rain 5.08 cm
[11] = Ray silt loam, 2.36 Kg/Ha, rain 10.16 cm
[12] = Ray silt loam, 0.14 Kg/Ha, rain 10.16 cm

With `CCCOCN(C(=O)CCl)c1c(C)cccc1C(F)(F)F` [Example 3, N--(n-propoxymethyl)-2'-trifluoromethyl-6'-methyl-2-chloroacetanilide] as the compound, how does the GR85 (Quackgrass; Replicate #1) read?
The GR85 was 0.12 Kg/Ha.

What about the GR85 (Quackgrass; Replicate #2) of the same compound?
Its GR85 is 0.13 Kg/Ha.

And the “selectivity factor (GR15/GR85)” value (Quackgrass; quackgrass in corn, Replicate #1)?
The value was 6.5.

And the “selectivity factor (GR15/GR85)” value (Quackgrass; quackgrass in corn, Replicate #2)?
Its value is 5.5.

What about the “selectivity factor (GR15/GR85)” value (Quackgrass; quackgrass in soybeans, Replicate #1) of the same compound?
Its value is 9.

And the “selectivity factor (GR15/GR85)” value (Quackgrass; quackgrass in soybeans, Replicate #2)?
Its value is 8.5.

And the GR85 (Yellow Nutsedge; Replicate #1)?
Its GR85 is 0.11 Kg/Ha.

And the GR85 (Yellow Nutsedge; Replicate #2)?
Its GR85 is 0.21 Kg/Ha.

And the “selectivity factor (GR15/GR85)” value (Yellow Nutsedge; yellow nutsedge in corn, Replicate #1)?
Its value is 7.

And the “selectivity factor (GR15/GR85)” value (Yellow Nutsedge; yellow nutsedge in corn, Replicate #2)?
Its value is 3.5.

And the “selectivity factor (GR15/GR85)” value (Yellow Nutsedge; yellow nutsedge in soybeans, Replicate #1)?
The value was 10.

What about the “selectivity factor (GR15/GR85)” value (Yellow Nutsedge; yellow nutsedge in soybeans, Replicate #2) of the same compound?
Its value is 5.

What about the “GR85 Rate” value (common purslane) of the same compound?
The value was 0.70 Kg/Ha.

What about the “selectivity factor (GR15/GR85)” value (common purslane; in rape) of the same compound?
The value was 1.3.

And the “GR85 Rate” value (common ragweed)?
Its value is 0.49 Kg/Ha.

And the “selectivity factor (GR15/GR85)” value (common ragweed; in rape)?
The value was 1.8.

What about the “GR85 Rate” value (prickly sida) of the same compound?
Its value is > 1.12 Kg/Ha.

What about the “selectivity factor (GR15/GR85)” value (prickly sida; in rape) of the same compound?
Its value is “NS (non-selective)”.

What about the inhibition at 140 g/ha (Barnyardgrass; Drummer silt clay, 0.14 Kg/Ha, rain 0 cm) of the same compound?
The inhibition at 140 g/ha was 81%.

And the inhibition at 140 g/ha (Barnyardgrass; Drummer silt clay, 0.14 Kg/Ha, rain 1.27 cm)?
The inhibition at 140 g/ha was 99%.

What about the inhibition at 140 g/ha (Barnyardgrass; Drummer silt clay, 0.14 Kg/Ha, rain 5.08 cm) of the same compound?
The inhibition at 140 g/ha was 94%.

What about the inhibition at 140 g/ha (Barnyardgrass; Drummer silt clay, 0.14 Kg/Ha, rain 10.16 cm) of the same compound?
Its inhibition at 140 g/ha is 54%.

What about the inhibition at 560 g/ha (Barnyardgrass; Drummer silt clay, 0.56 Kg/Ha, rain 0 cm) of the same compound?
Its inhibition at 560 g/ha is 100%.

And the inhibition at 560 g/ha (Barnyardgrass; Drummer silt clay, 0.56 Kg/Ha, rain 1.27 cm)?
The inhibition at 560 g/ha was 100%.

What about the inhibition at 560 g/ha (Barnyardgrass; Drummer silt clay, 0.56 Kg/Ha, rain 5.08 cm) of the same compound?
Its inhibition at 560 g/ha is 100%.

What about the inhibition at 560 g/ha (Barnyardgrass; Drummer silt clay, 0.56 Kg/Ha, rain 10.16 cm) of the same compound?
The inhibition at 560 g/ha was 100%.

And the inhibition at 2360 g/ha (Barnyardgrass; Drummer silt clay, 2.36 Kg/Ha, rain 0 cm)?
Its inhibition at 2360 g/ha is 100%.

And the inhibition at 2360 g/ha (Barnyardgrass; Drummer silt clay, 2.36 Kg/Ha, rain 1.27 cm)?
The inhibition at 2360 g/ha was 100%.

And the inhibition at 2360 g/ha (Barnyardgrass; Drummer silt clay, 2.36 Kg/Ha, rain 5.08 cm)?
The inhibition at 2360 g/ha was 100%.

And the inhibition at 2360 g/ha (Barnyardgrass; Drummer silt clay, 2.36 Kg/Ha, rain 10.16 cm)?
The inhibition at 2360 g/ha was 100%.

What about the inhibition at 140 g/ha (Barnyardgrass; [1]) of the same compound?
The inhibition at 140 g/ha was 99%.

What about the inhibition at 140 g/ha (Barnyardgrass; [2]) of the same compound?
The inhibition at 140 g/ha was 95%.

What about the inhibition at 140 g/ha (Barnyardgrass; [3]) of the same compound?
Its inhibition at 140 g/ha is 63%.

What about the inhibition at 560 g/ha (Barnyardgrass; [4]) of the same compound?
Its inhibition at 560 g/ha is 100%.

What about the inhibition at 560 g/ha (Barnyardgrass; [5]) of the same compound?
Its inhibition at 560 g/ha is 100%.

What about the inhibition at 560 g/ha (Barnyardgrass; [6]) of the same compound?
The inhibition at 560 g/ha was 94%.

And the inhibition at 560 g/ha (Barnyardgrass; [7])?
Its inhibition at 560 g/ha is 52%.

What about the inhibition at 2360 g/ha (Barnyardgrass; [8]) of the same compound?
The inhibition at 2360 g/ha was 100%.

What about the inhibition at 2360 g/ha (Barnyardgrass; [9]) of the same compound?
The inhibition at 2360 g/ha was 100%.

And the inhibition at 2360 g/ha (Barnyardgrass; [10])?
The inhibition at 2360 g/ha was 100%.

What about the inhibition at 2360 g/ha (Barnyardgrass; [11]) of the same compound?
The inhibition at 2360 g/ha was 95%.

And the inhibition at 140 g/ha (Barnyardgrass; [12])?
The inhibition at 140 g/ha was 14%.

What about the “Fresh Weight” value (Barnyardgrass; [1]) of the same compound?
The value was 0.05 Grams.

And the “Fresh Weight” value (Barnyardgrass; [2])?
The value was 0.22 Grams.

What about the “Fresh Weight” value (Barnyardgrass; [3]) of the same compound?
The value was 1.53 Grams.

And the “Fresh Weight” value (Barnyardgrass; [12])?
The value was 3.51 Grams.

What about the “Fresh Weight” value (Barnyardgrass; [4]) of the same compound?
The value was 0 Grams.

What about the “Fresh Weight” value (Barnyardgrass; [5]) of the same compound?
The value was 0 Grams.

What about the “Fresh Weight” value (Barnyardgrass; [6]) of the same compound?
Its value is 0.24 Grams.

What about the “Fresh Weight” value (Barnyardgrass; [7]) of the same compound?
The value was 1.97 Grams.

What about the “Fresh Weight” value (Barnyardgrass; [8]) of the same compound?
Its value is 0 Grams.

And the “Fresh Weight” value (Barnyardgrass; [9])?
The value was 0 Grams.

What about the “Fresh Weight” value (Barnyardgrass; [10]) of the same compound?
The value was 0 Grams.

What about the “Fresh Weight” value (Barnyardgrass; [11]) of the same compound?
Its value is 0.22 Grams.
